Measured values as given in patent US20230357166A1, “PIPERAZINE-BASED CATIONIC LIPIDS” (TRANSLATE BIO, INC., priority 2020, published 2023).

System: male CD1 mice
Experiment: Delivery of Firefly Luciferase (FFL) mRNA by intratracheal administration of lipid nanoparticles
Format: in vivo
Conditions: lipid nanoparticles (Process A) with FFL mRNA, cationic lipid, DMG-PEG2000, cholesterol and DOPE (40:5:25:30 or 45:5:20:30 mol %); single intratracheal aerosol administration; IVIS imaging approximately 24 hours post-dose; FIG. 1
Procedure: One exemplary process for lipid nanoparticle formulation is Process A of WO 2018/089801 (see, e.g., Example 1 and FIG. 1 of WO 2018/089801). Process A (“A”) relates to a conventional method of encapsulating mRNA by mixing mRNA with a mixture of lipids, without first pre-forming the lipids into lipid nanoparticles. In an exemplary process, an ethanol lipid solution and an aqueous buffered solution of mRNA were prepared separately. A solution of mixture of lipids (cationic lipid, helper lipids, zwitterionic lipids, PEG lipids etc.) was prepared by dissolving lipids in ethanol. The mRNA solution was prepared by dissolving the mRNA in citrate buffer. Then, these two solutions were mixed using a pump system. In some instances, the two solutions were mixed using a gear pump system. In certain embodiments, the two solutions were mixing using a ‘T’ junction (or “Y” junction). The mixture was then purified by diafiltration with a TFF process. The resultant formulation concentrated and stored at 2-8° C. until further use.
Lipid nanoparticle formulations prepared using Process A comprising FFL mRNA, cationic lipid, DMG-PEG2000, cholesterol and DOPE (40:5:25:30 or 45:5:20:30 mol % ratio) were administered to male CD1 mice (6-8 weeks old) by a single intratracheal aerosol administration via a Microsprayer® (50 ul/animal) while under anesthesia. At approximately 24 hours post-dose, the animals were dosed with luciferin at 150 mg/kg (60 mg/ml) by intraperitoneal injection at 2.5 ml/kg. After 5-15 minutes, all animals were imaged using an IVIS imaging system to measure luciferase production in the lung.

Compound | in vivo protein production (FFL protein; luciferase production in the lung)
CCCCCCCCC(O)CN(CCCC(=O)OCCN1CC(C)N(CCOC(=O)CCCN(CC(O)CCCCCCCC)CC(O)CCCCCCCC)CC1C)CC(O)CCCCCCCC (stereo not shown) [Compound A9] | high levels of in vivo protein production
CCCCCCCCCCC(O)CN(CCCCC(=O)OCCN1CC(C)N(CCOC(=O)CCCCN(CC(O)CCCCCCCCCC)CC(O)CCCCCCCCCC)CC1C)CC(O)CCCCCCCCCC (stereo not shown) [Compound A18] | high levels of in vivo protein production
CCCCCCCCCCCCC(O)CN(CCCC(=O)OCCN1CC(C)N(CCOC(=O)CCCN(CC(O)CCCCCCCCCCCC)CC(O)CCCCCCCCCCCC)CC1C)CC(O)CCCCCCCCCCCC (stereo not shown) [Compound A11] | high levels of in vivo protein production
CCCCCCCCC(O)CN(CCCC(=O)SCCN1CC(C)N(CCSC(=O)CCCN(CC(O)CCCCCCCC)CC(O)CCCCCCCC)CC1C)CC(O)CCCCCCCC (stereo not shown) [Compound C9] | high levels of in vivo protein production
CCCCCCCCC(O)CN(CCCCC(=O)SCCN1CC(C)N(CCSC(=O)CCCCN(CC(O)CCCCCCCC)CC(O)CCCCCCCC)CC1C)CC(O)CCCCCCCC (stereo not shown) [Compound C17] | high levels of in vivo protein production
CCCCCCCCC(O)CN(CCCCC(=O)OCCN1CC(C)N(CCOC(=O)CCCCN(CC(O)CCCCCCCC)CC(O)CCCCCCCC)CC1C)CC(O)CCCCCCCC (stereo not shown) [Compound A17] | high levels of in vivo protein production
CCCCCCCCCCCCC(O)CN(CCCCC(=O)OCCN1CC(C)N(CCOC(=O)CCCCN(CC(O)CCCCCCCCCCCC)CC(O)CCCCCCCCCCCC)CC1C)CC(O)CCCCCCCCCCCC (stereo not shown) [Compound A19] | high levels of in vivo protein production
CCCCCCCCOC(=O)CCN(CCCCC(=O)OCCN1CC(C)N(CCOC(=O)CCCCN(CCC(=O)OCCCCCCCC)CCC(=O)OCCCCCCCC)CC1C)CCC(=O)OCCCCCCCC (stereo not shown) [Compound D21] | high levels of in vivo protein production
CCCCC/C=C\C/C=C\CCCCCCC(O)CN(CCCC(=O)OCCN1CC(C)N(CCOC(=O)CCCN(CC(O)CCCCCC/C=C\C/C=C\CCCCC)CC(O)CCCCCC/C=C\C/C=C\CCCCC)CC1C)CC(O)CCCCCC/C=C\C/C=C\CCCCC (stereo not shown) [Compound A15] | high levels of in vivo protein production
CC(C)CCCCCCCOC(=O)CCN(CCCCC(=O)OCCN1CC(C)N(CCOC(=O)CCCCN(CCC(=O)OCCCCCCCC(C)C)CCC(=O)OCCCCCCCC(C)C)CC1C)CCC(=O)OCCCCCCCC(C)C (stereo not shown) [Compound D23] | high levels of in vivo protein production
